ChEMBL document CHEMBL1201862, “PubChem BioAssay data set” (2004)
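Dose response: 5 concentrations. Exposure: 48 h. Format: 96-well plates. Endpoint: linear interpolation; highest concentration if not reached. Abbreviation: GI50, concentration required for 50% inhibition of growth.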 Active and inactive are the calls of the source. Cut-off read from the data, not from the text of the source: active = GI50 up to about 1.1 µM and inactive = higher.

Assays:
Test in all cases: NCI anticancer screen, dose series, 48 h
ACHN = tested on: ACHN
COLO 205 = tested on: COLO 205
K562 = tested on: K562
KM12 = tested on: KM12
LXFL 529 = tested on: LXFL 529
NCI-H23 = tested on: NCI-H23
RXF 393 = tested on: RXF 393
SK-MEL-28 = tested on: SK-MEL-28
SK-MEL-2 = tested on: SK-MEL-2
SNB-19 = tested on: SNB-19
SNB-75 = tested on: SNB-75
SW-620 = tested on: SW-620
UACC-257 = tested on: UACC-257
UACC-62 = tested on: UACC-62
SK-OV-3 = tested on: SK-OV-3
A498 = tested on: A498
NCI-H226 = tested on: NCI-H226
DU-145 = tested on: DU-145
MDA-MB-231 = tested on: MDA-MB-231
MDA-MB-435 = tested on: MDA-MB-435

Measured: GI50

CCc1cc2c(O)c(c1)Cc1cc(CC)cc(c1O)Cc1cc(CC)cc(c1O)Cc1cc(CC)cc(c1O)Cc1cc(CC)cc(c1O)Cc1cc(CC)cc(c1O)Cc1cc(CC)cc(c1O)C2
inactive: ACHN > 100 µM | COLO 205 > 100 µM | K562 > 10 µM | KM12 > 100 µM | LXFL 529 > 100 µM | NCI-H23 > 100 µM | RXF 393 16.9 µM | SK-MEL-28 > 100 µM | SK-MEL-2 > 100 µM | SNB-19 22.1 µM | SNB-75 28.6 µM | SW-620 > 100 µM | UACC-257 > 100 µM | UACC-62 > 100 µM

COc1ccc(-c2oc3cc(O)c(OC)c(O)c3c(=O)c2OC2OC(CO)C(O)C(O)C2O)cc1 (stereo not given)
inactive: ACHN 91.2 µM | COLO 205 > 100 µM | K562 > 100 µM | KM12 > 100 µM | LXFL 529 > 100 µM | NCI-H23 > 100 µM | SK-MEL-28 > 100 µM | SK-MEL-2 > 100 µM | SK-OV-3 > 100 µM | SNB-19 > 100 µM | SNB-75 > 100 µM | SW-620 > 100 µM | UACC-62 > 100 µM

CS/C(c1ccccc1)=[N+](/C)[O-]
inactive: A498 > 100 µM | ACHN > 100 µM | COLO 205 > 43.3 µM | K562 > 67.9 µM | KM12 > 100 µM | LXFL 529 > 100 µM | NCI-H23 > 100 µM | RXF 393 > 100 µM | SK-MEL-28 > 100 µM | SK-MEL-2 > 100 µM | SK-OV-3 > 100 µM | SNB-19 > 100 µM | SNB-75 > 64.6 µM | SW-620 > 100 µM | UACC-257 > 100 µM | UACC-62 > 100 µM

Cc1ccc(Nc2cccc3c2C(=O)c2cccc(Nc4ccc(C)cc4S(=O)(=O)O)c2C3=O)c(S(=O)(=O)O)c1
inactive: A498 > 100 µM | ACHN > 100 µM | COLO 205 > 100 µM | K562 > 100 µM | KM12 > 100 µM | LXFL 529 > 100 µM | NCI-H226 > 100 µM | RXF 393 > 100 µM | SK-MEL-28 > 100 µM | SK-MEL-2 > 100 µM | SK-OV-3 > 100 µM | SNB-19 > 100 µM | SNB-75 > 100 µM | SW-620 > 100 µM | UACC-257 > 100 µM | UACC-62 > 100 µM

C[n+]1c2ccccc2c(NC(CCC(N)=O)C(=O)O)c2ccccc21 (stereo not given)
inactive: A498 > 100 µM | ACHN > 100 µM | COLO 205 > 100 µM | K562 > 100 µM | KM12 73.5 µM | LXFL 529 > 100 µM | NCI-H226 > 100 µM | NCI-H23 > 100 µM | RXF 393 > 100 µM | SK-MEL-2 > 100 µM | SK-OV-3 > 100 µM | SNB-19 > 100 µM | SNB-75 > 100 µM | SW-620 > 100 µM | UACC-257 > 100 µM | UACC-62 > 100 µM

Clc1cc(Cl)c2c(Cl)cc(Cl)c3c2c1N=S=N3
inactive: A498 6.68 µM | COLO 205 > 100 µM | K562 > 100 µM | KM12 > 100 µM | LXFL 529 > 100 µM | NCI-H226 > 100 µM | NCI-H23 > 100 µM | RXF 393 > 100 µM | SK-MEL-28 > 100 µM | SK-MEL-2 > 100 µM | SK-OV-3 > 100 µM | SNB-19 > 100 µM | SNB-75 > 100 µM | SW-620 > 100 µM | UACC-257 > 100 µM | UACC-62 62.5 µM

N=C(N)NS(=O)(=O)c1ccc(NC(=O)c2cccc3c(Nc4ccc(S(N)(=O)=O)cc4)c4ccccc4nc23)cc1
inactive: A498 > 100 µM | ACHN > 100 µM | COLO 205 > 100 µM | K562 > 100 µM | KM12 > 100 µM | LXFL 529 > 100 µM | NCI-H23 > 100 µM | RXF 393 > 100 µM | SK-MEL-28 > 100 µM | SK-MEL-2 > 100 µM | SK-OV-3 > 100 µM | SNB-19 > 100 µM | SNB-75 > 100 µM | SW-620 > 100 µM | UACC-257 > 100 µM | UACC-62 > 100 µM

CCCCCCCC(=O)OCC(C[As](=O)(O)O)OC(=O)CCCCCCC (stereo not given)
inactive: A498 19.1 µM | ACHN 16.9 µM | COLO 205 14.3 µM | K562 20.6 µM | LXFL 529 13.4 µM | NCI-H226 22.3 µM | NCI-H23 15.2 µM | RXF 393 5.01 µM | SK-MEL-28 15.7 µM | SK-OV-3 15.7 µM | SNB-19 14.8 µM | SNB-75 15.7 µM | SW-620 15.6 µM | UACC-257 14.8 µM | UACC-62 13.8 µM

COc1cc(/C=C(\C#N)c2ccccc2)cc(OC)c1
inactive: ACHN 60.5 µM | COLO 205 57.4 µM | K562 15.2 µM | KM12 34.8 µM | LXFL 529 43.4 µM | NCI-H226 25.8 µM | NCI-H23 20.3 µM | SK-MEL-28 26.1 µM | SK-MEL-2 73.6 µM | SK-OV-3 48.2 µM | SNB-19 > 100 µM | SW-620 38.9 µM | UACC-257 8.59 µM | UACC-62 32.4 µM

O=S1OC(c2ccccc2)(c2ccccc2)C(c2ccccc2)(c2ccccc2)O1
inactive: A498 > 100 µM | ACHN 41.7 µM | COLO 205 > 100 µM | K562 25.1 µM | KM12 5.43 µM | LXFL 529 7.45 µM | NCI-H226 > 100 µM | NCI-H23 > 52.7 µM | RXF 393 > 72.1 µM | SK-MEL-28 > 100 µM | SK-OV-3 > 100 µM | SNB-19 > 100 µM | SNB-75 > 56.4 µM | SW-620 > 100 µM | UACC-257 46.6 µM | UACC-62 > 100 µM

CCOC(=O)Cn1c2ccccc2c(=O)c2cc(C)c(C)c(C#N)c21
inactive: ACHN > 100 µM | COLO 205 > 100 µM | LXFL 529 > 100 µM | NCI-H226 > 100 µM | NCI-H23 > 100 µM | RXF 393 63.7 µM | SK-MEL-28 > 100 µM | SK-MEL-2 > 100 µM | SK-OV-3 55.5 µM | SNB-19 > 100 µM | SNB-75 23.2 µM | SW-620 > 100 µM | UACC-257 > 100 µM | UACC-62 > 100 µM

Oc1nc2cc(Cl)ccc2nc1/C(=N\Nc1ccccc1)C(O)c1ccc2c(c1)OCO2 (stereo not given)
inactive: A498 > 100 µM | ACHN > 100 µM | COLO 205 > 100 µM | DU-145 > 100 µM | K562 > 100 µM | KM12 > 100 µM | MDA-MB-231 > 100 µM | MDA-MB-435 > 100 µM | NCI-H226 > 100 µM | NCI-H23 > 100 µM | RXF 393 > 100 µM | SK-MEL-28 > 100 µM | SK-MEL-2 > 100 µM | SK-OV-3 > 100 µM | SNB-19 > 100 µM | SNB-75 > 100 µM | SW-620 > 100 µM | UACC-257 > 100 µM | UACC-62 > 100 µM
